Results: PMC9034232 (RSC Advances, 2021)

Columns and labels:
[1] = tested on: influenza A/H1N1/WSN/33 virus; assay: Anti-IAV activity assay; format: cell-based; details: 24 h, read-out: IC50 (anti-IAV activity)
[2] = in vitro; details: human

Structure (SMILES)	IC50 [1] [µM]	CC50 [2] [µM]
NC(=O)c1ncn([C@@H]2O[C@H](CO)[C@@H](O)[C@H]2O)n1 [Ribavirin, reference compound]	21.7	> 100
Cc1cc(=O)c2c(o1)C[C@H](O)C[C@H]2O [Compound 9, (5R,7R)-5,7-dihydroxy-2-methyl-5,6,7,8-tetrahydro-4H-chromen-4-one]	16.1	> 100
Cc1cc(=O)c2c(o1)C[C@@H](O)C[C@H]2O [Compound 11, (5R,7S)-5,7-dihydroxy-2-methyl-5,6,7,8-tetrahydro-4H-chromen-4-one]	9	> 100
